Test results from paper PMC11879040, “Advancing systemic toxicity risk assessment: Evaluation of a NAM-based toolbox approach” (Toxicological Sciences, 2024).
Structures can show the parent of a compound that is named as a salt. Where two headings read alike, the source gives them in different places.

How the values were obtained:
[1] = target: T1, Adenosine receptor A2a, ADORA2A (h) (Homo sapiens, UniProt P29274); experiment: IPP ADORA2A binding (agonist radioligand); details: control NECA
T1 construct: purchased Eurofins Cerep (SafetyScreen44-based IPP panel)
T1 sequence (P29274 whole entry): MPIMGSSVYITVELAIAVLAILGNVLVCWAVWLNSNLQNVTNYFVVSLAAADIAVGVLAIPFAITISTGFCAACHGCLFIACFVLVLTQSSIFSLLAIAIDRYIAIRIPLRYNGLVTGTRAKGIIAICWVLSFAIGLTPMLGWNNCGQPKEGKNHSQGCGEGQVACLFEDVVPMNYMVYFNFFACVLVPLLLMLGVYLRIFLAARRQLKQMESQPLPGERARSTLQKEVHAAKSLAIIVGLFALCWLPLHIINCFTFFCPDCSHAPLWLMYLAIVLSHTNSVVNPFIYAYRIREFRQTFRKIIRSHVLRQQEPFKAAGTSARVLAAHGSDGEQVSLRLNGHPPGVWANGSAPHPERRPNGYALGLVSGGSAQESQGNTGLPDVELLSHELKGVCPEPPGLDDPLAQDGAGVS

[2] = tested on: Thyroid hormone receptor alpha, THRA (h); experiment: IPP THRA coactivator recruitment (agonist); type: biochemical, human; details: agonist, T3
Tubulin (r) = experiment: IPP Tubulin binding; design: species or system rat
HepG2 cells [3] = experiment: Cell stress panel (CSP), 24 h, 8 concentrations, BIFROST global PoD; type: cell-based; details: HepG2; cell stress panel PoD
Procedure: Compounds were tested using the previously developed cell stress panel ([Hatherell et al. 2020]) and the expanded biomarker panel outlined in Middleton et al. HepG2 cells were treated with all compounds for 24 h across 8 concentrations prior to biomarker analysis. The same plate layout and number of replicates (3 biological and 2 technical) were used as previously for each assay within the panel.

HepG2 cells [4] = experiment: High-throughput transcriptomics (HTTr, TempO-Seq), HepG2, 24 h; type: cell-based, human; details: HepG2; for pod_httr_bifrost PoD: HTTr BIFROST PoD; for podl_path_minbmd PoD: HTTr minimum pathway BMD(L)
Procedure: (§1) HepG2, HepaRG, and MCF7 cells were treated with each compound for 24 h across a dose range of 7 concentrations and lysed using TempO-Seq lysis buffer (BioSpyder Technologies, proprietary kit, see [Middleton et al. 2022] for method details). Sequencing was performed using TempO-Seq (BioClavis) version 2 of the human whole transcriptome panel and analyzed as described previously in Middleton et al.

HepaRG cells = experiment: High-throughput transcriptomics (HTTr, TempO-Seq), HepaRG, 24 h; type: cell-based, human; details: HepaRG; for pod_httr_bifrost PoD: HTTr BIFROST PoD; for podl_path_minbmd PoD: HTTr minimum pathway BMD(L)
Procedure: as §1

MCF7 cells = experiment: High-throughput transcriptomics (HTTr, TempO-Seq), MCF7, 24 h; type: cell-based, human; details: MCF-7; for pod_httr_bifrost PoD: HTTr BIFROST PoD; for podl_path_minbmd PoD: HTTr minimum pathway BMD(L)
Procedure: as §1

[5] = tested on: 63 targets with known safety liabilities; experiment: In vitro pharmacological profiling (IPP) panel, screening at 10 or 100 µM and dose response, minimum IC50/AC50; type: biochemical; details: read-out: ipp_lowest_ac50_systemic PoD
[6] = tested on: Glutamate receptor ionotropic NMDA 1 non-selective, GRIN1 (r)
[7] = human
rat = details: rat, cited from earlier work
[8] = per chemical see Peff Reference, cited from earlier work
[9] = target: Voltage-dependent L-type Ca2+ channel (dihydropyridine site), CACNA1C (r) (Rattus norvegicus, UniProt P22002); type: binding
Chain of Voltage-dependent L-type Ca2+ channel (dihydropyridine site), CACNA1C (r) (P22002 whole entry): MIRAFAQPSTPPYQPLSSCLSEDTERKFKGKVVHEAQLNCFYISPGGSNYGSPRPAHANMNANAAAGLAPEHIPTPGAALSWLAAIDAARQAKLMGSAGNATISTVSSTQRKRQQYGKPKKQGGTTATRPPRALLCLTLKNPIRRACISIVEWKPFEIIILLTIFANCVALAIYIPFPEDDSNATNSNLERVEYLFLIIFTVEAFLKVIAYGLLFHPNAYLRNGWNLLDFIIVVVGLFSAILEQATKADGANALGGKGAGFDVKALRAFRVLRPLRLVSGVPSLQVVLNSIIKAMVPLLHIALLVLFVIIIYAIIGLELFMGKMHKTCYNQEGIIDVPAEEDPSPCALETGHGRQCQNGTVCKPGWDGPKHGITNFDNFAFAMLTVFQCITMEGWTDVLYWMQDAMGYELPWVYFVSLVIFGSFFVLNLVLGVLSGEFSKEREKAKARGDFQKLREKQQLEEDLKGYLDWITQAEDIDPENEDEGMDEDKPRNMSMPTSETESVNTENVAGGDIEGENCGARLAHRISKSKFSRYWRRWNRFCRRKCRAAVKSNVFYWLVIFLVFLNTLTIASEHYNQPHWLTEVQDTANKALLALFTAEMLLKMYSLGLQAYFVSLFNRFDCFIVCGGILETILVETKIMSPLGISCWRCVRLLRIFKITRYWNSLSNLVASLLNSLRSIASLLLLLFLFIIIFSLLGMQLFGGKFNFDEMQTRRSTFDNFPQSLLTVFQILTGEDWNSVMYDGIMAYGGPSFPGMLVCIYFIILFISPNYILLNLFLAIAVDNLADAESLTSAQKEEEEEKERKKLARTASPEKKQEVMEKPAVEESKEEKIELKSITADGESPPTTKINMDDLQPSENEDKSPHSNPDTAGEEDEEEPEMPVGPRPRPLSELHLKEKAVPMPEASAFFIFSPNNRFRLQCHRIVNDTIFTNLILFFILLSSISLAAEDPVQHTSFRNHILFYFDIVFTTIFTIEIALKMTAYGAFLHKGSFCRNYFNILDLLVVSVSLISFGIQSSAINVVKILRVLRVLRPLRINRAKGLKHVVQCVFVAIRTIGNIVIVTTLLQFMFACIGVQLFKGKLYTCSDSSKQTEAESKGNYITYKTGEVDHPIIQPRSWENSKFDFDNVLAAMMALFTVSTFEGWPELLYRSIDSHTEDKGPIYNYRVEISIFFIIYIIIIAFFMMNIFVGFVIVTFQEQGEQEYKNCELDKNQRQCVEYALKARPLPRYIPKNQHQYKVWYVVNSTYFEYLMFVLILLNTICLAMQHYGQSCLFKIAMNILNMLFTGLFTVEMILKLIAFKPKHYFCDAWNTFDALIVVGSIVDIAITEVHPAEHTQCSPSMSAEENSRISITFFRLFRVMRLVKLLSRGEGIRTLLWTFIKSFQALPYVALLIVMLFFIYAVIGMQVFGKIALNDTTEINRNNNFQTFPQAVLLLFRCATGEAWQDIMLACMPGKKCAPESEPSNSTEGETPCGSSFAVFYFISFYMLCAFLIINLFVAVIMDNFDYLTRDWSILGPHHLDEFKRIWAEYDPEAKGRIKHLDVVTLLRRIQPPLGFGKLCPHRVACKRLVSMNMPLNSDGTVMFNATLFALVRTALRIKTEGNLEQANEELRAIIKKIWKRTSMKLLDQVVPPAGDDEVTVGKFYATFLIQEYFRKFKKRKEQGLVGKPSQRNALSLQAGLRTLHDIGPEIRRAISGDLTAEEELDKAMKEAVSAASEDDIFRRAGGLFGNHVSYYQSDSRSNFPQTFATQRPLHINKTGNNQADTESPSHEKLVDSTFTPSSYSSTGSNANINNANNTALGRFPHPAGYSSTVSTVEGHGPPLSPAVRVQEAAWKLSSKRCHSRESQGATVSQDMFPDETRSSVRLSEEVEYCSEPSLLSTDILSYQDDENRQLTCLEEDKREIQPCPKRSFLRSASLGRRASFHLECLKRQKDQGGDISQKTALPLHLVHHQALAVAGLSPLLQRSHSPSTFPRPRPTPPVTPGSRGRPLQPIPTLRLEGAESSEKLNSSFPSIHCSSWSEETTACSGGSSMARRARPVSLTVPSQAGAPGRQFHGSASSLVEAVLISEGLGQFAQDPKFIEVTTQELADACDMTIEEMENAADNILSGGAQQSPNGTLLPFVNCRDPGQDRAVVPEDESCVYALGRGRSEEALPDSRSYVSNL

[10] = tested on: Potassium Voltage-Gated Channel Kv non-selective, KCNQ1 (r); experiment: IPP KCNQ1 binding (antagonist radioligand); design: species or system rat
[11] = tested on: Gamma-aminobutyric acid receptor subunit alpha-1 BZD site, GABRA1A (r); type: binding, rat; details: control diazepam
[12] = tested on: Sodium channel protein type 5 subunit alpha (site 2), SCN5A (r); type: binding, rat
[13] = cited from earlier work
[14] = single value or median, ref [2],[4],[6],[7],[8],[10],[11],[15],[18],[27],[34], cited from earlier work
[15] = PBK level L2; taken or scaled from references (median where several); ref [6],[7],[10],[19]; cited from earlier work
[16] = hepatic intrinsic clearance (Clint); details: PBK level L3; optimised against clinical data; per chemical [8],[9],[14],[16],[22],[24],[25],[29],[30],[32]
[17] = Assignment of risk classifications to benchmark chemical-exposure scenarios; details: for risk: Oral, Therapeutic, Tablet, from table S1
[18] = PBK model plasma Cmax estimate (Gastroplus 9.8; levels L1, L2, L3); design: species or system human
[19] = target: Potassium voltage-gated channel subfamily H member 2 hERG, KCNH2 (h) (Homo sapiens, UniProt Q12809); details: human
Chain of Potassium voltage-gated channel subfamily H member 2 hERG, KCNH2 (h) (Q12809 whole entry): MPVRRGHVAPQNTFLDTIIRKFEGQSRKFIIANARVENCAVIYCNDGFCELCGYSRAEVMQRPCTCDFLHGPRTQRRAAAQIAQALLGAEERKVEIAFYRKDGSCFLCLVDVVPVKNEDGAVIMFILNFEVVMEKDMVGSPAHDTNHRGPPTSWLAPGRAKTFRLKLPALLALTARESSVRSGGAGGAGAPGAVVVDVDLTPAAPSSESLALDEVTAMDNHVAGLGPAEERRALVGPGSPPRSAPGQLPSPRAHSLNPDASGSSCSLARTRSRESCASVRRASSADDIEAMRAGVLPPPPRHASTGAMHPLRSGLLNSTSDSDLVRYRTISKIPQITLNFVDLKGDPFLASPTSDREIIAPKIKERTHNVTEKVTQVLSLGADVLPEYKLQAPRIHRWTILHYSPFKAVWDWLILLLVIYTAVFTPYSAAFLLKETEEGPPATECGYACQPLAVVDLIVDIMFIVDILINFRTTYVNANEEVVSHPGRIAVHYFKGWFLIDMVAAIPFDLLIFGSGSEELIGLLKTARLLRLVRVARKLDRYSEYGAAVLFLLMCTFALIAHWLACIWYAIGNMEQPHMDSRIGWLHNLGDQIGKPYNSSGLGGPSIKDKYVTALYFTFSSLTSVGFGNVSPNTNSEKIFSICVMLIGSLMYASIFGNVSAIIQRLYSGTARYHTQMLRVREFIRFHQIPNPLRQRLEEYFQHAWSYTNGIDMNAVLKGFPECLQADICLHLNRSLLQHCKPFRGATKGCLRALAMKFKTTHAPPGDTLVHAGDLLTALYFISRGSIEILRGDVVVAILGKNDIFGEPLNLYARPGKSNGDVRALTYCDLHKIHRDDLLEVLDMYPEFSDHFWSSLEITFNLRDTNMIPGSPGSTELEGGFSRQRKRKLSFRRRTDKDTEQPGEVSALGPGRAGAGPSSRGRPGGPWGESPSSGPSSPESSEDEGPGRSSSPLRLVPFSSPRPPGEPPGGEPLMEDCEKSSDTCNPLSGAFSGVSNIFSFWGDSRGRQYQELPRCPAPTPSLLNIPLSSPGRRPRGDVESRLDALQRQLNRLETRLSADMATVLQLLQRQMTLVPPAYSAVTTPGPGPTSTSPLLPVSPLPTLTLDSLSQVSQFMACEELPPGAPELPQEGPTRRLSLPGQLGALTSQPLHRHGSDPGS

[20] = target: Tyrosine-protein kinase Lck, LCK (h) (Homo sapiens, UniProt P06239); experiment: IPP LCK enzymatic activity; type: biochemical; details: Enzymatic activity; control staurosporine; read-out: IPP Dose Response PoD: LCK
Chain of Tyrosine-protein kinase Lck, LCK (h) (P06239 whole entry): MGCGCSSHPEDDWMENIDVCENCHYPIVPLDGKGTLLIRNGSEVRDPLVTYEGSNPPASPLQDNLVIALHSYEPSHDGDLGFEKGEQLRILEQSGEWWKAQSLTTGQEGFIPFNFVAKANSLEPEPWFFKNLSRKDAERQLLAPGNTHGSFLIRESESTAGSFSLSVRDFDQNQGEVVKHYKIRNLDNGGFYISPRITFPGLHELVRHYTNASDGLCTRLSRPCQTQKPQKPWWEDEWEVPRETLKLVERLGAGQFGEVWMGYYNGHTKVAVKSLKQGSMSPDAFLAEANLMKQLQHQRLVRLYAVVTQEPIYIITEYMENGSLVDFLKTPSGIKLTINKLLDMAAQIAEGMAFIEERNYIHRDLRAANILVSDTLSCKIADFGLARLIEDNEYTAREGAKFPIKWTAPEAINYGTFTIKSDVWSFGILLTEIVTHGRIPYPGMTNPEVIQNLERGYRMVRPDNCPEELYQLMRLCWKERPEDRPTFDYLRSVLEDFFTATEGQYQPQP

[21] = target: 5-hydroxytryptamine receptor 2B, HTR2B (h) (Homo sapiens, UniProt P41595)
Chain of 5-hydroxytryptamine receptor 2B, HTR2B (h) (P41595 whole entry): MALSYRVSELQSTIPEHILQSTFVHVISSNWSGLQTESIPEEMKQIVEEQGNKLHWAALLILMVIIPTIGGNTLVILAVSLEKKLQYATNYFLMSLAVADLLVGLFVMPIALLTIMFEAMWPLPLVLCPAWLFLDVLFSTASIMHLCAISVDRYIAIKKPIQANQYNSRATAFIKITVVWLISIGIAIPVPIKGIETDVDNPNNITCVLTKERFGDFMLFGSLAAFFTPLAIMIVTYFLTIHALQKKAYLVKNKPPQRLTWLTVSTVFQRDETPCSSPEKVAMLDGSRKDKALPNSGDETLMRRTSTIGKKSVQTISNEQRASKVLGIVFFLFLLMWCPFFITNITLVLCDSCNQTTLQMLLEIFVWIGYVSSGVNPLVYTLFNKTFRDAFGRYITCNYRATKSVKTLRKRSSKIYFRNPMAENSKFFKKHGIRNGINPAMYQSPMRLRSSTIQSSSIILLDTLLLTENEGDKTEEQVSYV

[22] = 100 uM, * denotes assay interference (2-Amino-6-chloro-4-nitrophenol, HC Red 3)
[23] = IV bolus 4 mg, patients hospitalized with community-acquired pneumonia, calibration, ref Spoorenberg et al. 2014
[24] = Oral tablet 6 mg, fasted, 6 female healthy Asian, validation, ref Jobe et al. 2020
[25] = Oral tablet 6 mg, fasted, patients hospitalized with community-acquired pneumonia, validation, ref Spoorenberg et al. 2014
[26] = 10 uM, ligand/control Colchicine
[27] = IPP screening at 10 uM, control CGS 19755

SMILES: NS(=O)(=O)c1cc(C(=O)O)c(NCc2ccco2)cc1Cl [Furosemide, 4-Chloro-2-{[(furan-2-yl)methyl]amino}-5-sulfamoylbenzoic acid]
- Specific binding ([1]; IPP screening at 100 uM): 15.2%
- IPP screening %, Coactivator recruitment [2, 22]: -1.0%
- IPP screening %, Specific binding (Tubulin (r)): -4.0%
- pod_cell_stress PoD (HepG2 cells [3]): 2.832 µM
- pod_httr_bifrost PoD (HepG2 cells [4]): 3.253 µM
- podl_path_minbmd PoD (HepG2 cells [4]): 177.032 µM
- pod_httr_bifrost PoD (HepaRG cells): 0.2929 µM
- podl_path_minbmd PoD (HepaRG cells): 1.613 µM
- pod_httr_bifrost PoD (MCF7 cells): 72.7631 µM
- podl_path_minbmd PoD (MCF7 cells): 520.886 µM
- AC50 [5]: 1380 nM
- Specific binding [6]: 5.8%
- risk [7]: 1
- PoD (NOEL) (rat; chronic, ref NTP study): 46.9 mg/kg bw/day
- Peff ([8]; PBK level L2, ref [3],[4],[11]): 0.41 cm/s x E-04
- Peff ([8]; PBK level L3, ref [4],[11]): 0.41 cm/s x E-04

SMILES: C[C@@H]1C[C@H]2[C@@H]3CCC4=CC(=O)C=C[C@]4(C)[C@@]3(F)[C@@H](O)C[C@]2(C)[C@@]1(O)C(=O)CO [Dexamethasone, 9-Fluoro-11beta,17,21-trihydroxy-16alpha-methylpregna-1,4-diene-3,20-dione]
- Specific binding [9]: -36.4%
- Specific binding ([10]; IPP screening at 100 uM, control α-dendrotoxin): -4.1%
- Specific binding ([11]; IPP screening at 100 uM): 27.9%
- Specific binding [12]: 11.2%
- Specific binding ([1]; IPP screening at 100 uM): -9.1%
- IPP screening %, Coactivator recruitment [2, 22]: 3.0%
- IPP screening %, Specific binding (Tubulin (r); 100 uM, ligand/control Colchicine): -8.0%
- pod_cell_stress PoD (HepG2 cells [3]): 14.5194 µM
- pod_httr_bifrost PoD (HepG2 cells [4]): 0.0003269 µM
- podl_path_minbmd PoD (HepG2 cells [4]): 69.6957 µM
- pod_httr_bifrost PoD (HepaRG cells): 3.5452 µM
- podl_path_minbmd PoD (HepaRG cells): 74.2662 µM
- pod_httr_bifrost PoD (MCF7 cells): 9.79e-05 µM
- podl_path_minbmd PoD (MCF7 cells): 6.367 µM
- AC50 ([5]; lowest AC50 across IPP panel (systemic targets), cell_type -): 3.15 nM
- Specific binding ([6]; IPP screening at 100 uM, control CGS 19755): 10.7%
- PoD (NOAEL) (rat; endocrine toxicity study, ref ECFA ADI): 0.001 mg/kg bw/day
- Reported AUC0-t [13, 23]: 507.3 ng·h/mL
- Reported cmax [13, 23]: 0.0964 µg/mL
- Reported tmax [13, 23]: 0 h
- Reported AUC0-t [13, 24]: 689.3 ng·h/mL
- Reported cmax [13, 24]: 0.0822 µg/mL
- Reported tmax [13, 24]: 1.53 h
- Reported AUC0-t [13, 25]: 746.6 ng·h/mL
- Reported cmax [13, 25]: 0.0643 µg/mL
- Reported tmax [13, 25]: 1.4 h
- Fup ([14]; PBK level L2): 26.3%
- Fup ([14]; PBK level L3): 26.3%
- Intrinsic Liver Clearance [15]: 107.8 L/h
- Intrinsic Liver Clearance [16]: 23.37 L/h
- Risk Classification ([17]; Oral tablet 0.5 mg/day): High risk
- Risk Classification ([17]; Oral tablet 10 mg/day): High risk
- risk ([17]; 0.5mg/day, Exp3): 1
- risk ([17]; 10mg/day, Exp4): 1

SMILES: C[C@H]1O[C@@H](O[C@H]2[C@@H](O)C[C@H](O[C@H]3[C@@H](O)C[C@H](O[C@H]4CC[C@@]5(C)[C@H](CC[C@@H]6[C@@H]5C[C@@H](O)[C@]5(C)[C@@H](C7=CC(=O)OC7)CC[C@]65O)C4)O[C@@H]3C)O[C@@H]2C)C[C@H](O)[C@@H]1O [Digoxin, 3beta-{[2,6-Dideoxy-beta-D-ribo-hexopyranosyl-(1->4)-2,6-dideoxy-beta-D-ribo-hexopyranosyl-(1->4)-2,6-dideoxy-beta-D-ribo-hexopyranosyl]oxy}-12beta,14-dihydroxy-5beta-card-20(22)-enolide]
- Specific binding [9]: 0.7%
- Specific binding [10]: -2.7%
- Specific binding ([11]; IPP screening at 10 uM): 11.3%
- Specific binding [12]: 19.6%
- Specific binding ([1]; IPP screening at 10 uM): 26.2%
- IPP screening %, Coactivator recruitment ([2]; 10 uM): 1.0%
- IPP screening %, Specific binding (Tubulin (r); [26]): -7.0%
- pod_cell_stress PoD (HepG2 cells [3]): 0.0001773 µM
- pod_httr_bifrost PoD (HepG2 cells [4]): 0.007046 µM
- podl_path_minbmd PoD (HepG2 cells [4]): 0.02695 µM
- pod_httr_bifrost PoD (HepaRG cells): 0.01449 µM
- podl_path_minbmd PoD (HepaRG cells): 0.04151 µM
- pod_httr_bifrost PoD (MCF7 cells): 0.003833 µM
- podl_path_minbmd PoD (MCF7 cells): 0.02134 µM
- L2 Cmax estimate underprediction of the L3 plasma Cmax ([18]; largest of any underprediction, printed with ∼): 30- to 50 fold
- underprediction of the L3 result at L2 (Cmax) ([18]; therapeutic uses): ≥ 5 fold
- Specific binding [6, 27]: -2.6%
- IPP screening %, Specific binding [19]: -6.2%

SMILES: COc1ccc(CCN(C)CCCC(C#N)(c2ccc(OC)c(OC)c2)C(C)C)cc1OC (centres unmarked) [Verapamil Hydrochloride, 2-(3,4-Dimethoxyphenyl)-5-{[2-(3,4-dimethoxyphenyl)ethyl](methyl)amino}-2-(propan-2-yl)pentanenitrile--hydrogen chloride (1/1)]
- Specific binding [10]: 4.7%
- Specific binding ([11]; IPP screening at 10 uM): -6.7%
- Specific binding [12]: 74.6%
- IC50 [20]: > 35800 nM
- IPP screening %, Coactivator recruitment ([2]; 10 uM): 1.0%
- IPP screening %, Specific binding (Tubulin (r); [26]): 13.0%
- pod_cell_stress PoD (HepG2 cells [3]): 0.6383 µM
- Specific binding [6, 27]: 2.5%
- leading IPP PoD (target) [21]: antagonism of the serotonin 2B receptor
